US9409952B2, “Peptide-compound cyclization method” (Chugai Seiyaku Kabushiki Kaisha, priority 2011, dated 2016)
Where a name gives a salt, the structure may show the parent alone. Read-outs that look alike come from different tables or passages of the source. Positions of bridges follow the written chain, without caps; N, C: chain ends. Non-standard residues stand in square brackets, D forms with d. Residues, ends and D or L forms follow the SMILES beside them. ξ: configuration not given here. *: point of attachment. NMeF = CN[C@@H](Cc1ccccc1)C(=O)O; NMeI = CC[C@H](C)[C@H](NC)C(=O)O; ξThr(3R) = C[C@@H](O)C(N)C(=O)O; NMeL = CN[C@@H](CC(C)C)C(=O)O; NMeV = CN[C@H](C(=O)O)C(C)C; NMeA = CN[C@@H](C)C(=O)O; Piperidide = C1CCN(*)CC1; Sar = CNCC(=O)O; tBu = CC(C)(C)*

Experiments:
[1] = PAMPA (parallel artificial membrane permeability assay); type: in vitro ADME; conditions: PAMPA
Summary of the method: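 Artificial membrane was 10% (w/v) egg lecithin plus 0.5% (w/v) cholesterol in dodecane on a PVDF filter. A 10 mM DMSO stock was added at 0.5% (v/v) to donor buffer (50 mM MOPSO, pH 6.5, 5.0% glycocholic acid). After 18 h at 37 °C, LC/MS or LC/UV gave donor and acceptor levels for Pe.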

[2] = Metabolic stability in human hepatic microsome; type: in vitro ADME; conditions: for microsomal CLint at 1 uM: microsomes
[3] = membrane permeation rate (Pe), 50 mM MOPSO buffer pH 6.5 with 5.0% glycocholic acid, 37° C., 18 hours, read-out: iPAMPA Pe
[4] = pH 7.4, human hepatic microsome, NADPH(+), read-out: CL NADPH(+)

Which Papp at 18 hours, 50 µM ([1]; pH 6.5) does the source give for CC[C@H](C)[C@@H]1NC(=O)[C@@H]2CCCN2C(=O)[C@H](Cc2ccccc2)NC(=O)[C@H](Cc2ccccc2)NC(=O)[C@H](CC(C)C)NC(=O)[C@H](C(C)C)N(C)C(=O)[C@H](CC(C)C)NC(=O)[C@H](C)NC(=O)[C@H](C)NC(=O)C[C@@H](C(=O)N2CCCCC2)NC(=O)CNC(=O)C([C@@H](C)O)NC1=O (stereo partly drawn) [DP-3] (AAL[NMeV]LFFPI[ξThr(3R)]GD-Piperidide; lactam N-12) here?
The Papp at 18 hours, 50 µM was 0.56 ×10⁻⁶ cm/s.

What about the microsomal CLint at 1 uM ([2]; human, pH 7.4, CL NADPH(+)) of the same compound?
The microsomal CLint at 1 uM was 45 µL/min/mg.

For CC[C@H](C)[C@@H]1NC(=O)[C@H](CC(C)C)NC(=O)[C@H](CC(C)C)NC(=O)[C@H](C)N(C)C(=O)[C@H](C(C)C)NC(=O)[C@H](C)NC(=O)C[C@@H](C(=O)N2CCCCC2)NC(=O)[C@H](CC(C)C)NC(=O)[C@H]([C@@H](C)O)NC(=O)[C@@H]2CCCN2C(=O)[C@H](CC(C)C)NC(=O)[C@H](Cc2ccccc2)NC1=O [DP-4] (AV[NMeA]LLIFLPTLD-Piperidide; lactam N-12), which Papp at 18 hours, 50 µM ([1]; pH 6.5) is on record?
Its Papp at 18 hours, 50 µM is 11 ×10⁻⁶ cm/s.

What about the microsomal CLint at 1 uM ([2]; human, pH 7.4, CL NADPH(+)) of the same compound?
Its microsomal CLint at 1 uM is 42 µL/min/mg.

For CC[C@H](C)[C@@H]1NC(=O)[C@H](C)NC(=O)C[C@@H](C(=O)N2CCCCC2)NC(=O)[C@H](CC(C)C)NC(=O)[C@H](CC(C)C)NC(=O)[C@H](C(C)C)NC(=O)[C@H](C)N(C)C(=O)[C@H](Cc2ccccc2)NC(=O)CNC(=O)[C@H]([C@@H](C)O)NC(=O)[C@H](CC(C)C)N(C)C(=O)[C@@H]2CCCN2C1=O [DP-5] (AIP[NMeL]TGF[NMeA]VLLD-Piperidide; lactam N-12), which Papp at 18 hours, 50 µM ([1]; pH 6.5) is on record?
Its Papp at 18 hours, 50 µM is 13 ×10⁻⁶ cm/s.

What about the microsomal CLint at 1 uM ([2]; human, pH 7.4, CL NADPH(+)) of the same compound?
Its microsomal CLint at 1 uM is 68 µL/min/mg.

With CC[C@H](C)[C@H]1C(=O)N(C)[C@@H](C)C(=O)N[C@@H](Cc2ccccc2)C(=O)N[C@@H]([C@@H](C)O)C(=O)N[C@@H](Cc2ccccc2)C(=O)N(C)[C@@H](CC(C)C)C(=O)N2CCC[C@H]2C(=O)N[C@H](C(=O)N2CCCCC2)CC(=O)N[C@@H](C)C(=O)N[C@@H](CC(C)C)C(=O)N(C)CC(=O)N[C@@H](CC(C)C)C(=O)N1C [DP-7] (AL[Sar]L[NMeI][NMeA]FTF[NMeL]PD-Piperidide; lactam N-12) as the compound, how does the Papp at 18 hours, 50 µM [1, 3] read?
The Papp at 18 hours, 50 µM was 10 ×10⁻⁶ cm/s.

What about the microsomal CLint at 1 uM [2, 4] of the same compound?
The microsomal CLint at 1 uM was 48 µL/min/mg.

Which Papp at 18 hours, 50 µM [1, 3] does the source give for CC[C@H](C)[C@@H]1NC(=O)[C@H](C)NC(=O)C[C@@H](C(=O)N2CCCCC2)NC(=O)[C@H](Cc2ccccc2)NC(=O)[C@H](C(C)C)N(C)C(=O)[C@H](CC(C)C)NC(=O)[C@H](C)N(C)C(=O)[C@H](Cc2ccccc2)N(C)C(=O)[C@H]([C@@H](C)O)NC(=O)CN(C)C(=O)[C@H](CC(C)C)N(C)C(=O)[C@@H]2CCCN2C1=O [DP-9] (AIP[NMeL][Sar]T[NMeF][NMeA]L[NMeV]FD-Piperidide; lactam N-12) here?
The Papp at 18 hours, 50 µM was 13 ×10⁻⁶ cm/s.

What about the microsomal CLint at 1 uM [2, 4] of the same compound?
Its microsomal CLint at 1 uM is 18 µL/min/mg.

With CC[C@H](C)[C@H]1C(=O)N(C)[C@@H](C)C(=O)N(C)[C@@H](Cc2ccccc2)C(=O)N[C@@H]([C@@H](C)O)C(=O)N(C)[C@@H](Cc2ccccc2)C(=O)N(C)[C@@H](CC(C)C)C(=O)N2CCC[C@H]2C(=O)N[C@H](C(=O)N2CCCCC2)CC(=O)N[C@@H](C)C(=O)NCC(=O)N(C)[C@@H](CC(C)C)C(=O)N1C [DP-16] (AG[NMeL][NMeI][NMeA][NMeF]T[NMeF][NMeL]PD-Piperidide; lactam N-11) as the compound, how does the Papp at 18 hours, 50 µM ([1]; pH 6.5) read?
The Papp at 18 hours, 50 µM was 30 ×10⁻⁶ cm/s.

And the microsomal CLint at 1 uM [2, 4]?
The microsomal CLint at 1 uM was 74 µL/min/mg.

Which results are given for CC[C@H](C)[C@@H]1NC(=O)[C@H](Cc2ccccc2)N(C)C(=O)[C@H](Cc2ccccc2)NC(=O)[C@H](CC(C)C)N(C)C(=O)[C@H](CC(C)C)NC(=O)[C@H](C)NC(=O)C[C@@H](C(=O)N2CCCCC2)NC(=O)[C@H](CC(C)C)NC(=O)[C@H]([C@@H](C)O)NC(=O)[C@@H]2CCCN2C1=O [DP-17] (AL[NMeL]F[NMeF]IPTLD-Piperidide; lactam N-10)?
Papp at 18 hours, 50 µM ([1]; pH 6.5): 38 ×10⁻⁶ cm/s; microsomal CLint at 1 uM ([2]; human, pH 7.4, CL NADPH(+)): 94 µL/min/mg

Which results are given for CC[C@H](C)[C@H]1C(=O)N(C)[C@@H](C)C(=O)N[C@@H](Cc2ccccc2)C(=O)N[C@@H]([C@@H](C)O)C(=O)N[C@@H](CC(C)C)C(=O)N(C)[C@@H](Cc2ccccc2)C(=O)N(C)[C@@H](C(C)C)C(=O)N[C@H](C(=O)N2CCCCC2)CC(=O)N[C@@H](C)C(=O)N[C@@H](CC(C)C)C(=O)N1C [DP-18] (AL[NMeI][NMeA]FTL[NMeF][NMeV]D-Piperidide; lactam N-10)?
Papp at 18 hours, 50 µM ([1]; pH 6.5): 30 ×10⁻⁶ cm/s; microsomal CLint at 1 uM ([2]; human, pH 7.4, CL NADPH(+)): 202 µL/min/mg

What does the source list for CC[C@H](C)[C@H]1C(=O)N[C@@H](Cc2ccccc2)C(=O)N[C@@H](Cc2ccccc2)C(=O)N2CCC[C@H]2C(=O)N[C@@H]([C@@H](C)O)C(=O)N(C)[C@@H](CC(C)C)C(=O)N[C@H](C(=O)N2CCCCC2)CC(=O)N[C@@H](C)C(=O)N[C@@H](C)C(=O)N(C)[C@@H](CC(C)C)C(=O)N[C@@H](CC(C)C)C(=O)N1C [DP-29] (AA[NMeL]L[NMeI]FFPT[NMeL]D-Piperidide; lactam N-11)?
Papp at 18 hours, 50 µM ([1]; pH 6.5): 31 ×10⁻⁶ cm/s; microsomal CLint at 1 uM ([2]; human, pH 7.4, CL NADPH(+)): 158 µL/min/mg

What does the source list for CC[C@H](C)[C@H]1C(=O)N[C@@H](CC(C)C)C(=O)N(C)CC(=O)N[C@@H]([C@@H](C)O)C(=O)N[C@@H](Cc2ccccc2)C(=O)N[C@@H](C)C(=O)N(C)[C@@H](CC(C)C)C(=O)N[C@@H](Cc2ccccc2)C(=O)N[C@@H](C(C)C)C(=O)N[C@H](C(=O)N2CCCCC2)CC(=O)N[C@@H](C)C(=O)N[C@@H](CC(C)C)C(=O)N1C [DP-35] (AL[NMeI]L[Sar]TFA[NMeL]FVD-Piperidide; lactam N-12)?
Papp at 18 hours, 50 µM ([1]; pH 6.5): 12 ×10⁻⁶ cm/s; microsomal CLint at 1 uM ([2]; human, pH 7.4, CL NADPH(+)): 32 µL/min/mg

What does the source list for CC[C@H](C)[C@H]1C(=O)N[C@H](C(=O)N2CCCCC2)CC(=O)N[C@@H](C)C(=O)N(C)[C@@H](Cc2ccccc2)C(=O)N(C)[C@@H](CC(C)C)C(=O)N[C@@H]([C@@H](C)O)C(=O)N(C)CC(=O)N(C)[C@@H](CC(C)C)C(=O)N[C@@H](COC(C)(C)C)C(=O)N1C [DP-37] (A[NMeF][NMeL]T[Sar][NMeL]S(tBu)[NMeI]D-Piperidide; lactam N-9)?
Papp at 18 hours, 50 µM ([1]; pH 6.5): 31 ×10⁻⁶ cm/s; microsomal CLint at 1 uM ([2]; human, pH 7.4, CL NADPH(+)): 156 µL/min/mg

For CC(C)C[C@H]1C(=O)N[C@@H](COC(C)(C)C)C(=O)N[C@H](C(=O)N2CCCCC2)CC(=O)N[C@@H](C)C(=O)N(C)[C@@H](C)C(=O)N(C)[C@@H](Cc2ccccc2)C(=O)N(C)[C@@H](CC(C)C)C(=O)N[C@@H]([C@@H](C)O)C(=O)N(C)CC(=O)N1C [DP-38] (A[NMeA][NMeF][NMeL]T[Sar][NMeL]S(tBu)D-Piperidide; lactam N-9), which Papp at 18 hours, 50 µM ([1]; pH 6.5) is on record?
The Papp at 18 hours, 50 µM was 16 ×10⁻⁶ cm/s.

And the microsomal CLint at 1 uM ([2]; human, pH 7.4, CL NADPH(+))?
Its microsomal CLint at 1 uM is 55 µL/min/mg.

Which results are given for CC(C)C[C@H]1C(=O)N[C@@H](COC(C)(C)C)C(=O)N[C@H](C(=O)N2CCCCC2)CC(=O)N(C)[C@@H](C)C(=O)N(C)[C@@H](C)C(=O)N(C)[C@@H](Cc2ccccc2)C(=O)N(C)[C@@H](CC(C)C)C(=O)N[C@@H]([C@@H](C)O)C(=O)N(C)CC(=O)N1C [DP-39] ([NMeA][NMeA][NMeF][NMeL]T[Sar][NMeL]S(tBu)D-Piperidide; lactam N-9)?
Papp at 18 hours, 50 µM ([1]; pH 6.5): 16 ×10⁻⁶ cm/s; CL NADPH(+) ([2]; human hepatic microsome, NADPH(+)): 67

Which Papp at 18 hours, 50 µM ([1]; pH 6.5) does the source give for CC[C@H](C)[C@H](NC(=O)[C@@H]1CC(=O)N[C@@H](C)C(=O)N[C@@H](CC(C)C)C(=O)N2CCC[C@H]2C(=O)N[C@@H](C)C(=O)N[C@@H](CC(C)C)C(=O)N(C)CC(=O)N[C@@H]([C@@H](C)O)C(=O)N[C@@H](Cc2ccccc2)C(=O)N[C@@H](CC(C)C)C(=O)N(C)[C@@H](Cc2ccccc2)C(=O)N[C@@H](C(C)C)C(=O)N1)C(=O)N1CCCCC1 [DP-40] (ALPAL[Sar]TFL[NMeF]VDI-Piperidide; lactam N-12) here?
Its Papp at 18 hours, 50 µM is 5.8 ×10⁻⁶ cm/s.

And the microsomal CLint at 1 uM ([2]; human, pH 7.4, CL NADPH(+))?
The microsomal CLint at 1 uM was 38 µL/min/mg.
